According to the supplement of paper PMC10307832:

What was measured:
Test in all cases: relative viability (nuclei count vs DMSO), 5 days (fraction); higher = more cells survive
XMD8-85 + Pemetrexed = compound: CN1CCN(CC1)C2=CC(=C(C=C2)NC3=NC=C4C(=N3)N(C5=CC=CC=C5C(=O)N4C)C)OC [XMD8-85] + Nc1nc2[nH]cc(CCc3ccc(C(=O)N[C@@H](CCC(=O)O)C(=O)O)cc3)c2c(=O)[nH]1 [Pemetrexed] (partner 0.2 µM)
In short: (§1)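 Lung cancer cell lines were pin-tool dosed in 1536-well plates on the day after seeding, with either a lone drug or a fixed anchor-drug dose plus five library-drug doses (not always all listed) in √10 steps. Nuclei were counted on 4× images after 5 days. Relative viability is the ratio of treated-well to vehicle-well nuclei counts, with each value a median of duplicate plates.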

XMD8-85 + Palbociclib = compound: CN1CCN(CC1)C2=CC(=C(C=C2)NC3=NC=C4C(=N3)N(C5=CC=CC=C5C(=O)N4C)C)OC [XMD8-85] + CC(=O)c1c(C)c2cnc(Nc3ccc(N4CCNCC4)cn3)nc2n(C2CCCC2)c1=O [Palbociclib] (partner 0.5 µM)
In short: as §1

4EGI-1 + Decitabine = compound: O=C(O)C(Cc1ccccc1[N+](=O)[O-])=NNc1nc(-c2ccc(Cl)c(Cl)c2)cs1 (mixture of isomers) [4EGI-1] + Nc1ncn([C@H]2C[C@H](O)[C@@H](CO)O2)c(=O)n1 [Decitabine] (partner 2 µM)
In short: as §1

4EGI-1 + Alpelisib = compound: O=C(O)C(Cc1ccccc1[N+](=O)[O-])=NNc1nc(-c2ccc(Cl)c(Cl)c2)cs1 (mixture of isomers) [4EGI-1] + Cc1nc(NC(=O)N2CCC[C@H]2C(N)=O)sc1-c1ccnc(C(C)(C)C(F)(F)F)c1 [Alpelisib] (partner 2 µM)
In short: as §1

Cell Line	relative viability (XMD8-85 + Pemetrexed; first compound 0.08 µM)	relative viability (XMD8-85 + Pemetrexed; first compound 0.253 µM)	relative viability (XMD8-85 + Pemetrexed; first compound 0.8 µM)	relative viability (XMD8-85 + Pemetrexed; first compound 2.53 µM)	relative viability (XMD8-85 + Pemetrexed; first compound 8 µM)	relative viability (XMD8-85 + Palbociclib; first compound 0.08 µM)	relative viability (XMD8-85 + Palbociclib; first compound 0.253 µM)	relative viability (XMD8-85 + Palbociclib; first compound 0.8 µM)	relative viability (XMD8-85 + Palbociclib; first compound 8 µM)	relative viability (4EGI-1 + Decitabine; first compound 0.5 µM)	relative viability (4EGI-1 + Decitabine; first compound 1.581 µM)	relative viability (4EGI-1 + Decitabine; first compound 5 µM)	relative viability (4EGI-1 + Decitabine; first compound 15.81 µM)	relative viability (4EGI-1 + Decitabine; first compound 50 µM)	relative viability (4EGI-1 + Alpelisib; first compound 0.5 µM)	relative viability (4EGI-1 + Alpelisib; first compound 1.581 µM)	relative viability (4EGI-1 + Alpelisib; first compound 5 µM)	relative viability (4EGI-1 + Alpelisib; first compound 15.81 µM)	relative viability (4EGI-1 + Alpelisib; first compound 50 µM)	relative viability (XMD8-85 + Palbociclib; first compound 2.53 µM)
SK-MES-1	0.857	1.08	1	0.9	0.44	0.342	0.351	0.31	0.248	0.384	0.323	0.362	0.285	0.241	0.968	0.735	0.911	0.773	0.827	–
SW 1573	0.831	0.813	1.06	0.895	0.461	–	0.387	0.431	0.192	0.623	0.427	0.495	0.254	0.112	1.1	0.644	0.879	0.785	0.663	0.365
UMC-11	0.818	0.745	0.82	0.707	0.391	0.359	0.336	0.347	0.318	0.731	0.609	0.685	0.624	0.419	1.06	1.03	1.12	0.898	0.306	0.308
